Measurements published in publication PMC10384675, “Novel Thiazolidine-2,4-dione-trimethoxybenzene-thiazole Hybrids as Human Topoisomerases Inhibitors” (Pharmaceuticals, 2023).

Tests used:
caspases 3/7 = assay: Caspase-Glo assay, caspase-3/7; format: cell-based, human; details: MCF-7 cells, at IC50 value, 24 h, vs vehicle
Protocol: (§1) Once established that mitochondria were damaged and cyt c released into the cytoplasm, we evaluated the ability of compound 7e treatment (used at its IC50 value) in modulating caspase activity.
(§2) The caspase-Glo Assay (Caspase-Glo® 3/7, 8 and 9 Assay Systems, Promega Corporation, Madison, WI) was used to detect caspase-3/7, -8 and -9 activities, as reported in [82]. Briefly, cells were grown in white-walled 96-well plates, treated with the compound, and 100 µL of each […] was added.
(§3) Figure 7 Caspase activity in MCF-7 cells. […] Columns mean, bars SD; * p < 0.001; n.s., not significant (treated vs. CTRL).

[1] = system: mouse BALB/3T3 embryonic fibroblasts; assay: MTT cytotoxicity assay, BALB/3T3; format: cell-based; details: 72 h, normal cells
Protocol: (§4) All of the synthesized compounds (7a–f) were studied to test their anticancer activity toward the estrogen receptor-positive (ER+) MCF-7 and the triple-negative MDA-MB-231 breast cancer cells (ER-, PR- and HER-2/Neu not overexpressed) and A2058 melanoma cells. Cells were incubated for 72 h with different concentrations of the compounds, and then the viability was checked by the MTT assay. […] Moreover, we checked the cytotoxicity of all of the synthesized compounds against the human MCF-10A non-malignant breast epithelial cells and mouse BALB/3T3 embryonic fibroblasts, in order to evaluate their selectivity on cancer cells.
(§5) The used cell lines (breast cancer cell lines MCF-7 and MDA-MB-231, melanoma cell line A2058 and human mammary epithelial cell line MCF-10A) were obtained from American Type Culture Collection (ATCC, Manassas, VA, USA) and cultured as already reported. The mouse BALB/3T3 embryonic fibroblasts were also purchased from American Type Culture Collection (ATCC, Manassas, VA, USA) and cultured in DMEM high glucose supplemented with 10% bovine calf serum (BCS) and 100 U mL^−1 penicillin/streptomycin.
(§6) MTT assay (Sigma Aldrich (St. Louis, MO, USA)) was performed for evaluating the in vitro anticancer activities of the compounds, as previously indicated. Different concentrations (0.1, 1, 10, 25, 50, and 100 μM) of the compounds were employed, with a 72 h endpoint. IC50 values were obtained from the percent (%) of control using GraphPad Prism 9 (GraphPad Software, La Jolla, CA, USA).

[2] = system: human MCF-10A non-malignant breast epithelial cells; assay: MTT cytotoxicity assay, MCF-10A; format: cell-based; details: 72 h, normal cells
Protocol: as §4, §5, §6

A2058 melanoma cells = assay: MTT cell viability assay, A2058; format: cell-based; details: Homo sapiens, 72 h
Protocol: as §4, §5, §6

hTopo II = target: T1, hTopo II (Homo sapiens, UniProt P11388); assay: hTopo II decatenation assay; format: biochemical; set-up: key to Topoisomerase Inhibition hTopo II: (+) inhibition; (−) no inhibition; (+/−) partial inhibition
T1 construct: purchased TopoGEN, Port Orange, FL
Protocol: The linear kDNA (Figure 4a,b, lanes A), decatenated kDNA (Figure 4a,b, lanes B) and the catenated circles of kDNA (Figure 4a,b, lanes C) were used as markers. A parallel experiment was performed using ellipticine as reference molecule.
hTopo I relaxation assays were performed by incubating the substrate (supercoiled pHOT1) with the recombinant hTopo I (TopoGEN, Port Orange, FL, USA) and compounds, as indicated in the supplier protocol (TopoGEN, Port Orange, FL, USA), with some revisions. hTopo II decatenation assays were conducted by incubating the kinetoplast DNA substrate (kDNA) with the hTopo II (TopoGEN, Port Orange, FL) and studied compounds, as indicated in the supplier procedures (TopoGEN, Port Orange, FL, USA), with some changes as in [80].
Figure 4 hTopo II decatenation assay. […] The same experiment was performed using ellipticine (c). Lane 1, decatenated kDNA marker; lane 2, linear kDNA marker; lane 3, CTRL (DMSO), lanes 4–5, ellipticine 10 and 50 µM, respectively.

caspase-8 = assay: Caspase-Glo assay, caspase-8; format: cell-based, human; details: MCF-7 cells, at IC50 value, 24 h, vs vehicle
Protocol: as §1, §2, §3

caspase-9 = assay: Caspase-Glo assay, caspase-9; format: cell-based, human; details: MCF-7 cells, at IC50 value, 24 h, vs vehicle
Protocol: as §1, §2, §3

[3] = system: MDA-MB-231 breast cancer cells; assay: MTT cell viability assay, MDA-MB-231; format: cell-based; details: Homo sapiens, 72 h
Protocol: as §4, §5, §6

[4] = system: MCF-7 breast cancer cells; assay: MTT cell viability assay, MCF-7; format: cell-based, human
Protocol: as §4, §5, §6

MCF-7 cells = assay: Mitochondria and cytochrome c immunostaining; format: cell-based, human; details: at IC50 value, 24 h
Text: In order to establish whether the observed cell death could be ascribed to the induction of the apoptotic pathway, we performed immunostaining assays using an anti-cytochrome c (cyt c) antibody and the mitochondrial probe MitoTracker Deep Red FM, which would allow us to verify whether cyt c was released from mitochondria to the cell cytoplasm or not. In Figure 6, panels B,C, it is possible to visualize the intracellular localization of cyt c (green fluorescence) and mitochondria (red fluorescence). […] Indeed, as visible in the overlay channel (panel D), the two fluorescence signals (red and green) were no longer superimposable.
Cells grown on glass coverslips in full medium were serum-deprived for 24 h, then the compound (or only vehicle) was added (24 h, 7e at its IC50 value). Next, cells were incubated with a staining solution containing MitoTracker® Deep Red FM probe (MitoTracker® Mitochondrion-Selective Probes, Invitrogen European Headquarters, Paisley PA4 9RF, UK; fluorescence excitation = 644, fluorescence emission = 665) for 20 min, at 37 °C. After a PBS wash, cells were fixed (cold methanol, 15 min at −20 °C) and incubated with the mouse anti-cytochrome c (556 433) primary antibody, purchased from BD, diluted in the blocking solution (4 °C/overnight), as described in [60]. […]

T1 sequence (P11388 whole entry): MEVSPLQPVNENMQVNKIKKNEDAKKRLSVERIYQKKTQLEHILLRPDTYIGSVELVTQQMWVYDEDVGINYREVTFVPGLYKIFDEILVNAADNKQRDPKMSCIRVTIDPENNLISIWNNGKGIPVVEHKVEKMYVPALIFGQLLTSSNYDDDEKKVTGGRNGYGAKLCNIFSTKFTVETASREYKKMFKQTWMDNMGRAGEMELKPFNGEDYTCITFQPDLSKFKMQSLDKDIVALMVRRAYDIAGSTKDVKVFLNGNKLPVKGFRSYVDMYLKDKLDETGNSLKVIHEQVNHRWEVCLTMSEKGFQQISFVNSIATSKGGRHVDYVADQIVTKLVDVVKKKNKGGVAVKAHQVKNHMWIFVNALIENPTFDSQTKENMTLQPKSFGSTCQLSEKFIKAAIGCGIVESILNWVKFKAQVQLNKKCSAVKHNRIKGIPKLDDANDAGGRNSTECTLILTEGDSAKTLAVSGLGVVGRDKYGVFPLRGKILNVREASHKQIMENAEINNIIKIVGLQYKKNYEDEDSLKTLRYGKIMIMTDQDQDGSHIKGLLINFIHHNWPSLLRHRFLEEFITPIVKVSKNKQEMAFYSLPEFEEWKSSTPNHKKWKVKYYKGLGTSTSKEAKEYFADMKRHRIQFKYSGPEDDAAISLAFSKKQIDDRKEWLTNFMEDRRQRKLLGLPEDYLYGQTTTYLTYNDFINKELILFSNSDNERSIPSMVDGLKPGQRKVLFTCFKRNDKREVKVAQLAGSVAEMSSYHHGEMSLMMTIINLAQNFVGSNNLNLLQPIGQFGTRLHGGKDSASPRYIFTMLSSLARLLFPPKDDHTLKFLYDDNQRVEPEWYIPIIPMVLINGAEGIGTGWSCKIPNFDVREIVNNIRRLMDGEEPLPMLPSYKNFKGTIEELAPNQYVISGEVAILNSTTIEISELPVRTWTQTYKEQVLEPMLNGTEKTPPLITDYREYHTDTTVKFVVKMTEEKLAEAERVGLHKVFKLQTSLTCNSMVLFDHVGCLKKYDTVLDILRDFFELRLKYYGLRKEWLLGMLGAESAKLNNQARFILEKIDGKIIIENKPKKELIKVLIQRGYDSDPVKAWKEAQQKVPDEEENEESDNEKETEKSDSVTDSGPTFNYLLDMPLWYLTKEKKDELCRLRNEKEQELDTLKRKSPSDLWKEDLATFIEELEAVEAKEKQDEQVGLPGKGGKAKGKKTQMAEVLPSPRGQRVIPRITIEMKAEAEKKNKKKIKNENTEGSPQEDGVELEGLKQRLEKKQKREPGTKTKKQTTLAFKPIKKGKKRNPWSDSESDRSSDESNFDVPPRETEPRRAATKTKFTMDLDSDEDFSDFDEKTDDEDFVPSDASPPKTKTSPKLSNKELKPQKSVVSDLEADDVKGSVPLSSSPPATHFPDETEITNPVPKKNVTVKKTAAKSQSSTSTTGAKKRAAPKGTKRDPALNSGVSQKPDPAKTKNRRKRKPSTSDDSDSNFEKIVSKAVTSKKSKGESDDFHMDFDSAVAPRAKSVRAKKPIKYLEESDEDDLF

COc1cc(/C=C2\SC(=O)N(CC(=O)Nc3nc(-c4ccc(Br)cc4)cs3)C2=O)cc(OC)c1OC [compound 7e, (Z)-2-(5-(3,4,5-Trimethoxybenzylidene)thiazolidin-2,4-dion-3-yl)-N-(4-(4-bromophenyl)thiazol-2-yl)acetamide]
caspases 3/7 activity (caspases 3/7): higher activity | IC50 [1]: 35 ± 0.6 µM | IC50 [2]: > 100 µM | IC50 (A2058 melanoma cells): 8.4 ± 0.9 µM | Topoisomerase Inhibition hTopo II (hTopo II; 10 µM): − | Topoisomerase Inhibition hTopo II (hTopo II; 50 µM): + | caspase-8 activity (caspase-8): no change | caspase-9 activity (caspase-9): noticeable increase | IC50 [3]: 41.2 ± 0.9 µM | IC50 ([4]; Homo sapiens, MCF7, MTT, 72 h): 3.1 ± 0.6 µM | fold more active against MCF-7 than against mouse BALB/3T3 embryonic fibroblasts ([4]; MCF-7 vs BALB/3T3 IC50): about 11 fold | cytochrome c release from mitochondria into the cytoplasm (MCF-7 cells): cyt c was released into the cell cytoplasm
